Reference: ChEMBL document CHEMBL1149408, “A QSAR model for in silico screening of MAO-A inhibitors. Prediction, synthesis, and biological assay of novel coumarins” (J Med Chem, 2006)

Target: Amine oxidase [flavin-containing] A (Rattus norvegicus) (UniProt P21396)
Test: Inhibition of MAO-A activity

Amine oxidase [flavin-containing] A (Rattus norvegicus), sequence (P21396 whole entry, looked up): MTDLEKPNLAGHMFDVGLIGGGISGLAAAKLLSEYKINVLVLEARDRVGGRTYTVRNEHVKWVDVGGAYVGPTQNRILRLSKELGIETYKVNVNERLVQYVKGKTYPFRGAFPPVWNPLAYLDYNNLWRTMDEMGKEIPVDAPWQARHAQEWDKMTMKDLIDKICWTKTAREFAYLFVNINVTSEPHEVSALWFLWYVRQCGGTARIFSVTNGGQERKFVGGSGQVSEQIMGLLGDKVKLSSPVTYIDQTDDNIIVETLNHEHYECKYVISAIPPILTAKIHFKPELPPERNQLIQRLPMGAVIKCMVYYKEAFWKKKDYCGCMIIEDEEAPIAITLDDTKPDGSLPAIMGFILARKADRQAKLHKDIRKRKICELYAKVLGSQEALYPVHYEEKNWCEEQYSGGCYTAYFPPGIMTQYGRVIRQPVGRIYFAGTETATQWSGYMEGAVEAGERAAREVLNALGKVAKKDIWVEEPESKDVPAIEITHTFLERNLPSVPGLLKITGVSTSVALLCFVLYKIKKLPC

Compound	IC50 [µM]
Cc1cc(=O)oc2cc3oc4c(c3cc12)CCC4	11.9
COc1c2oc(=O)c(N)cc2cc2c(C)coc12	21.7
Cc1cc(=O)oc2cc(OC3CCCC3=O)ccc12 (stereo not given)	0.04
COc1cc(OC2CCCCC2=O)c2c(C)cc(=O)oc2c1 (stereo not given)	> 200
COc1c(OC2CCCCC2=O)ccc2c(C)cc(=O)oc12 (stereo not given)	11.1
Cc1cc(=O)oc2cc3oc4c(c3cc12)CCCC4	65.2
Cc1cc(=O)oc2cc(OC3CCCCC3=O)ccc12 (stereo not given)	43
Cc1coc2cc3oc(=O)c(NC(=O)CN)cc3cc12	12.3
NCCCOc1c2occc2cc2ccc(=O)oc12	2.51
Cc1cc(=O)oc2cc3oc4ccccc4c3cc12	7.24
COc1c(OCC(C)=O)ccc2cc(NC(C)=O)c(=O)oc12	6.43
COc1c2occc2cc2ccc(=O)oc12 [METHOXSALEN]	85.1
CCN(CC)CCCOc1c2occc2cc2ccc(=O)oc12	> 200
COc1c(O)ccc2cc(N)c(=O)oc12	> 200
COc1cc(OC2CCCCC2=O)cc2oc(=O)cc(C)c12 (stereo not given)	21.4
